In paper PMC6136390, “Coptisine-induced inhibition of Helicobacter pylori: elucidation of specific mechanisms by probing urease active site and its maturation process” (Journal of Enzyme Inhibition and Medicinal Chemistry, 2018):
Like-named read-outs stand apart in the source and are kept apart here.

Key:
[1] = test system: H. pylori strains; experiment: Minimal bactericidal concentration assay (broth dilution); format: cell-based, Helicobacter pylori
Description: Fourteen H. pylori strains were used in this study. NCTC 11637 and NCTC 26695 strains were purchased from American Type Culture Collection. Sydney Strain-1 (SS1) was kindly provided by Prof. Richard Ferrero of Monash University, Australia. Clinical isolate ICDC 111001 was provided by Prof. Zhang Jian-zhong of the Chinese Center for Disease Control and Prevention, China. Ten clinical isolates (Hp1868, Hp1869, Hp1870, Hp1871, Hp1872, Hp1873, Hp1874, Hp1875, Hp1876, and Hp1877) were obtained from Renji Hospital, Shanghai Jiaotong University.
(§1) All strains were cultured in Columbia agar base containing 7% sheep blood at 37 °C in a micro-aerophilic environment (5% O2, 10% CO2, and 85% N2). After 3 days, H. pylori was scraped and suspended in phosphate buffered saline (PBS). Turbidimetry was employed to adjust the concentrations of different H. pylori strains (turbidity equivalent to 1.0 McFarland standard). Crude HPU was obtained according to the method described by Matsubara et al.[42]
The broth dilution method was used to determine the minimal bactericidal concentrations (MBCs) of coptisine (25, 37.5, 50, 62.5, 75, 100, and 125 μg/mL) against three H. pylori standard strains (SS1, NCTC 11637, and NCTC 26695) and eleven clinical isolates (ICDC 111001, HP 1868, HP 1869, HP 1870, HP 1871 and HP 1872, HP 1873, HP 1874, HP 1875, HP 1876, and HP 1877). In brief, H. pylori suspension (McFarland = 1.0) was exposed to DMSO (control) and coptisine at 2–4 times MIC in BHI with 10% FBS. After shaking at 120 rpm in the tri-gas incubator for 6 h, 100 μL samples were removed and cultured in Columbia blood agar base[43]. MBC was defined as a 99.9% decrease in viability compared with the control. The experiment was repeated twice.

[2] = molecular target: T1, H. pylori urease (HPU) (Helicobacter pylori, UniProt P69996); experiment: Urease inhibition assay in vitro (modified Berthelot method); format: biochemical
T1 construct: Crude HPU was obtained according to the method described by Matsubara et al; endogenous in cells; host or cells: cultured Helicobacter pylori (strain not specified)
Procedure: as §1
This assay was performed using the modified Berthelot method (phenol-hypochlorite) in 96 well plates. At the beginning of each reaction, different concentrations of urease solution and 150 mM urea as a substrate were mixed in 20 mM HEPES buffer (pH 7.5) at 37 °C. After a 20-min reaction, urease activity was tested by measuring the concentration of ammonia produced by the reaction at 595 nm using the microplate reader (Thermo Fisher Multiskan FC, Instruments, Inc., USA) at ambient temperature. […] One unit (U) of urease activity was defined as the amount of urease required to catalyse 1 μmol urea per min. […]
Coptisine’s ability to inhibit urease activity was determined by measuring amounts of ammonia produced using the modified Berthelot method described above. […] Residual activity (RA %) for each assay was calculated using the following equation: RA % = (activity with inhibitors/activity without inhibitors) × 100%. […]

[3] = molecular target: T2, UreG dimer (Helicobacter pylori, UniProt Q09066); experiment: UreG dimer formation inhibition assay (size exclusion chromatography); format: biochemical; conditions: 500 μM coptisine, 300 μM GTP, 5 μM UreG monomer, 2.5 μM NiSO4, 60 min
T2 construct: HisSUMO (N, cleaved yes); made in house; host or cells: Escherichia coli
Procedure: Size exclusion chromatography technology was used to analyse the effects of coptisine on UreG dimer formation. Experiment was carried out in the buffer containing 5 μM UreG monomer and 2.5 μM NiSO4, and divided into the following three groups: 300 μM GTP (positive control), buffer A (negative control), and 300 μM GTP +500 μM coptisine. After reaction for 60 min, samples were then injected into a Superdex 75 analytical gel filtration column pre-equilibrated with buffer A.

[4] = molecular target: T3, jack bean urease (JBU) (Canavalia ensiformis, UniProt P07374); experiment: Determination of urease inhibition type (Lineweaver-Burk plots); format: biochemical
T3 construct: purchased Sigma Aldrich (Steineheim, Germany) type III (catalogue number not given)
Procedure: (§2) Using the methods described above, the type of enzyme inhibition induced by coptisine was determined by examining changes in the Michaelis constant (KM) and maximum velocity (vmax) values from Lineweaver–Burk plots of 1/v versus 1/urea. The inhibition constant was determined using secondary plots of the apparent KM/vmax or 1/vmax versus the concentration of coptisine. The assays were performed in triplicate.

[5] = molecular target: T1, H. pylori urease (HPU); experiment: as above; format: biochemical
Procedure: as §2

[6] = Lineweaver-Burk plots, 1.00, 2.00 or 4.00 mM Cop

T3 sequence (P07374 whole entry, looked up): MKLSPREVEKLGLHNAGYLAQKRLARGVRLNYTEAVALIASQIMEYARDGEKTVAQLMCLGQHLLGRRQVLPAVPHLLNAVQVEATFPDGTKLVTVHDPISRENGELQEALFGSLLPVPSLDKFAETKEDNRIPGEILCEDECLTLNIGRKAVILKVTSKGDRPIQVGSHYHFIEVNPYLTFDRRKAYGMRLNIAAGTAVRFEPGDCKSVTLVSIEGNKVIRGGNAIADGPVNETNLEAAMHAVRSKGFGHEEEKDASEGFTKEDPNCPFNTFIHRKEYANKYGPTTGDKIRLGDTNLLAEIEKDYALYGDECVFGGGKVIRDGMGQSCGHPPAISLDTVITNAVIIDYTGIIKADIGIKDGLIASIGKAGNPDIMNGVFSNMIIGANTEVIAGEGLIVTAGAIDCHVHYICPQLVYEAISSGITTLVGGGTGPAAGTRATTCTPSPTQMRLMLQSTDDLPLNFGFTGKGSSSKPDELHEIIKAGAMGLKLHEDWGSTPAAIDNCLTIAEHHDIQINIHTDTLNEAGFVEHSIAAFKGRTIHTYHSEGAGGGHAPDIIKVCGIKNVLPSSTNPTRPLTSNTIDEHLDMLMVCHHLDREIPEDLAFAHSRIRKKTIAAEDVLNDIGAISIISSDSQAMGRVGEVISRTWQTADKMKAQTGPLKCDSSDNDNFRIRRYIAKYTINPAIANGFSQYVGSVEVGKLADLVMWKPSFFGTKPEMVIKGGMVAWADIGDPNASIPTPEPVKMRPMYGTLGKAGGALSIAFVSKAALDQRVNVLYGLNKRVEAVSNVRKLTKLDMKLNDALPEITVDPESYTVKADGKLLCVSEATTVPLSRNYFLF
T1 sequence (P69996 whole entry): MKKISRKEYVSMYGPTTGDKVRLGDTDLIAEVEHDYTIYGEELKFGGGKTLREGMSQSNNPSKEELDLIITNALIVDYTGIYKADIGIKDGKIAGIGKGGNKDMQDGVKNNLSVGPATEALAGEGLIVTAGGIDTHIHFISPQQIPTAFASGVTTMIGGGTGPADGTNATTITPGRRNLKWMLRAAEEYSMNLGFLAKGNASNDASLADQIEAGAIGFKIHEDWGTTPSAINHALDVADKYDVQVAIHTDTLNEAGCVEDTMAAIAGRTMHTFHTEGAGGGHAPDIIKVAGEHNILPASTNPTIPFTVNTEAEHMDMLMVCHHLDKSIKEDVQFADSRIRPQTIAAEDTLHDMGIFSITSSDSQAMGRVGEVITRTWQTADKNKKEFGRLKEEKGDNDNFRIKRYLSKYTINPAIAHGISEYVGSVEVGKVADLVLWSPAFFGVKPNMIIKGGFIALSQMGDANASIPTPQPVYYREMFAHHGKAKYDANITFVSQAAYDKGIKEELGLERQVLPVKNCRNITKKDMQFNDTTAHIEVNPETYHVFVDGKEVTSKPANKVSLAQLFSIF
T1 sequence (P14916 whole entry, further chain): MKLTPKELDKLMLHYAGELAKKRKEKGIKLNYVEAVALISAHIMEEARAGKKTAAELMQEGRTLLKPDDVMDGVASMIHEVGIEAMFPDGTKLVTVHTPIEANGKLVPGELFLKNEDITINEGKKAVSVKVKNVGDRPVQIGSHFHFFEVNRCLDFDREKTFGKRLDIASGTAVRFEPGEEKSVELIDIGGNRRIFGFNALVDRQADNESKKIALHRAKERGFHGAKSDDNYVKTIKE
T2 sequence (Q09066 whole entry): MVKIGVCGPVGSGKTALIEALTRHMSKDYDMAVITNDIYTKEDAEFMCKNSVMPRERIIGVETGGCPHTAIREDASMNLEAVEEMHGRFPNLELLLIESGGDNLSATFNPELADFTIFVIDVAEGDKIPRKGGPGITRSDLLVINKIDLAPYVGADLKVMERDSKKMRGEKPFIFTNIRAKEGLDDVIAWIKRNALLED

For `c1c2c(cc3c1OCO3)-c1cc3ccc4c(c3c[n+]1CC2)OCO4` [Coptisine], the MBC ([1]; Helicobacter pylori, NCTC11637, strain NCTC 11637, pH = 7.2, read-out: MBC) was 62.5 µg/mL, the MBC ([1]; Helicobacter pylori, NCTC26695, strain NCTC 26695, pH = 7.2, read-out: MBC) was 37.5 µg/mL and the MBC ([1]; Helicobacter pylori, clinical isolate HP 1868, pH = 7.2, read-out: MBC) was 62.5 µg/mL. It also gave an MBC ([1]; Helicobacter pylori, clinical isolate HP 1869 (MET resistance), pH = 7.2, read-out: MBC) of 62.5 µg/mL, an MBC ([1]; Helicobacter pylori, clinical isolate HP 1870 (CLR and MET resistance), pH = 7.2, read-out: MBC) of 37.5 µg/mL and an MBC ([1]; Helicobacter pylori, clinical isolate HP 1871 (MET resistance), pH = 7.2, read-out: MBC) of 37.5 µg/mL. For the same molecule, the MBC ([1]; Helicobacter pylori, clinical isolate HP 1872, pH = 7.2, read-out: MBC) was 37.5 µg/mL, the MBC ([1]; Helicobacter pylori, clinical isolate HP 1873, pH = 7.2, read-out: MBC) was 75 µg/mL and the MBC ([1]; Helicobacter pylori, clinical isolate HP 1874, pH = 7.2, read-out: MBC) was 100 µg/mL. It also gave an MBC ([1]; Helicobacter pylori, clinical isolate HP 1875, pH = 7.2, read-out: MBC) of 75 µg/mL, an MBC ([1]; Helicobacter pylori, clinical isolate HP 1876 (CLR and MET resistance), pH = 7.2, read-out: MBC) of 75 µg/mL and an MBC ([1]; Helicobacter pylori, clinical isolate HP 1877, pH = 7.2, read-out: MBC) of 125 µg/mL. The MBC ([1]; Helicobacter pylori, clinical isolate ICDC 111001, pH = 7.2, read-out: MBC) was 50 µg/mL, the MBC ([1]; Helicobacter pylori, strain SS1, pH = 7.2, read-out: MBC) was 37.5 µg/mL and the MBC/MIC ([1]; clinical isolate HP 1868) was 1.25. The MBC/MIC ([1]; clinical isolate HP 1869) was 1.25, the MBC ([1]; clinical isolate HP 1869 (MET resistance), pH = 7.2) was 62.5 µg/mL and the MBC/MIC ([1]; clinical isolate HP 1870) was 1.5. For the same molecule, the MBC ([1]; clinical isolate HP 1870 (CLR and MET resistance), pH = 7.2) was 37.5 µg/mL, the MBC/MIC ([1]; clinical isolate HP 1871) was 1.5 and the MBC ([1]; clinical isolate HP 1871 (MET resistance), pH = 7.2) was 37.5 µg/mL. It also gave an MBC/MIC ([1]; clinical isolate HP 1872) of 1.5, an MBC/MIC ([1]; clinical isolate HP 1873) of 1.5 and an MBC/MIC ([1]; clinical isolate HP 1874) of 2. The MBC/MIC ([1]; clinical isolate HP 1875) was 1.5, the MBC/MIC ([1]; clinical isolate HP 1876) was 1.5 and the MBC ([1]; clinical isolate HP 1876 (CLR and MET resistance), pH = 7.2) was 75 µg/mL. It also gave an MBC/MIC ([1]; clinical isolate HP 1877) of 2.5, an MBC/MIC ([1]; clinical isolate ICDC 111001) of 2 and an MBC/MIC ([1]; strain NCTC 11637) of 2.5. The MBC/MIC ([1]; strain NCTC 26695) was 1.5, the MBC/MIC ([1]; strain SS1) was 1.5 and the IC50 [2] was 1780 ± 60 µM. For the same molecule, the UreG dimerisation [3] was “obviously inhibited”, the Ki [4] was 170 µM and the “inhibition type, JBU” value [4, 6] was “non-competitively inhibits”. The “Kis, JBU” value ([4]; from intercept versus Cop concentration) was 0.25 mM, the Ki [5] was 50 µM and the “inhibition type, HPU” value [5, 6] was “mixed-type inhibitor”. For the same molecule, the “Kis (binding to the enzyme substrate complex), HPU” value ([5]; from vertical intercept versus inhibitor concentration) was 1.48 mM.
